Reference: paper PMC10607100, “Anticancer and Antiphytopathogenic Activity of Fluorinated Isatins and Their Water-Soluble Hydrazone Derivatives” (International Journal of Molecular Sciences, 2023)
Read-outs that look alike come from different tables or passages of the source.

Tests used:
Type in all cases: cell-based
[1] = system: Micrococcus luteus B-109; test: Agar-well diffusion, bactericidal activity; settings: Micrococcus luteus
Excerpt: (§1) Plant pathogenic bacterial strains Micrococcus luteus B-109, Pectobacterium atrosepticum 1043, Pectobacterium carotovorum subsp. carotovorum MI, Pseudomonas fluorescens EL-2.1, and Xanthomonas campestris B-610 and the fungal strain Fusarium oxysporum IBPPM 543 were from the Collection of Rhizosphere Microorganisms, IBPPM RAS (WFCC no. 975, WDCM no. 1021) (CM IBPPM, http://collection.ibppm.ru). The pathogenic fungus Phytophthora cactorum VKM F-985, provided by the All-Russian Collection of Microorganisms (VKM) and deposited at the A.E. Favorsky Irkutsk Institute of Chemistry, SB RAS, was also used as a test organism. Bacteria M. luteus, P. carotovorum subsp. carotovorum, P. atrosepticum, and P. fluorescens were grown in a meat–peptone medium (BP), and X. campestris was grown in the medium with glucose, yeast extract, and calcium carbonate (GYCa). Solid media contained Bacto agar (18 g/L); pH was adjusted to 7.2–7.4. All bacterial cultures were grown at 28 °C. The mycelial cultures of F. oxysporum and P. cactorum were grown on a glucose–peptone–yeast (GPY) nutrient medium at 27 °C. For inoculum preparation, both fungal strains were initially grown on the agar GPY in Petri dishes and then transferred into the seed medium by punching out 5 mm of the agar plate culture with a self-designed cutter.
(§2) The antibacterial and antifungal activities of the compounds were explored using the agar-well diffusion method and the technique of mycelial radial growth inhibition. The method of diffusion in agar (measuring the diameter of growth inhibition zones) was used to determine the bactericidal activity. The 6-mm wells were made in agar medium (GYCa for Xanthomonas campestris or BP for other bacteria). Bacterial suspensions were distributed over the agar surface, and the tested compound’s solution (150 μL) was added to each well. The width of growth inhibition zones around the wells was determined after incubation for 36–40 h.

[2] = system: Pectobacterium atrosepticum 1043; test: Agar-well diffusion, bactericidal activity; settings: Pectobacterium atrosepticum, 1043, 2 mM/L
Excerpt: as §1, §2

[3] = system: Pectobacterium carotovorum subsp. carotovorum MI; test: Agar-well diffusion, bactericidal activity; settings: Pectobacterium carotovorum, 2 mM/L
Excerpt: as §1, §2

[4] = system: Pseudomonas fluorescens EL-2.1; test: Agar-well diffusion, bactericidal activity; settings: Pseudomonas fluorescens, EL2.1, 2 mM/L
Excerpt: as §1, §2

[5] = system: Xanthomonas campestris B-610; test: Agar-well diffusion, bactericidal activity; settings: Xanthomonas campestris
Procedure: Bacteria M. luteus, P. carotovorum subsp. carotovorum, P. atrosepticum, and P. fluorescens were grown in a meat–peptone medium (BP), and X. campestris was grown in the medium with glucose, yeast extract, and calcium carbonate (GYCa). Solid media contained Bacto agar (18 g/L); pH was adjusted to 7.2–7.4. […] For inoculum preparation, both fungal strains were initially grown on the agar GPY in Petri dishes and then transferred into the seed medium by punching out 5 mm of the agar plate culture with a self-designed cutter.
as §2

[6] = system: five representative phytopathogens; test: Agar-well diffusion, bactericidal activity over the panel of phytopathogens
Excerpt: as §1, §2

[7] = system: Fusarium oxysporum IBPPM 543; test: Mycelial radial growth inhibition; settings: Fusarium oxysporum; for inhibition of growth at 1 µM: 1 nmol/mL; for inhibition of growth at 1 µM / inhibition of growth at 5 µM / inhibition of growth at 30 µM / inhibition of growth at 40 µM: read-out: Inhibition value, I (%); for inhibition of growth at 5 µM: 5 nmol/mL; for inhibition of growth at 30 µM: 30 nmol/mL; for inhibition of growth at 40 µM: 40 nmol/mL
Excerpt: as §1
(§3) For the fungicidal activity analysis, radial growth (colony diameters) of the fungi on a solid medium in the absence and in the presence of the compounds 5a–e and 7a–c solutions at various concentrations were compared. The method consisted of the following: A sterile GPY agar medium (20.0 mL), which was melted and then allowed to cool to approximately 60 °C, was mixed with the precisely measured volumes of the solutions under question and poured into a sterile Petri dish (90 mm i.d.). After the solidification of GPY agar, the media were inoculated by the fungus using 10-day-old cultures of F. oxysporum or P. cactorum. The inoculation was conducted by transferring a 5-mm (i.d.) GPY-agar block covered with mycelium to the center of the Petri dish, followed by incubation in a thermostat at 27 °C. The fungicidal effect was scored by the size of the mycelium colony on a Petri dish compared to the control without fungicidal admixtures to GPY agar. Each treatment was performed in at least four replicates in two independent experiments. The observation period ended when the control Petri dish was filled with mycelium (usually after 12 days). […] The solutions of the compounds were prepared with a concentration of 2 mmol/L (stock solution). For comparison, test compounds were also commonly applied as disinfecting agents, and antibiotics were used as a positive control.

[8] = system: Phytophthora cactorum VKM F-985; test: Mycelial radial growth inhibition; settings: Phytophthora cactorum; for inhibition of growth at 3 µM: 3 nmol/mL; for inhibition of growth at 3 µM / inhibition of growth at 7 µM / inhibition of growth at 20 µM / inhibition of growth / inhibition of growth at 40 µM: read-out: Inhibition value, I (%); for inhibition of growth at 7 µM: 7 nmol/mL; for inhibition of growth at 20 µM: 20 nmol/mL; for inhibition of growth: 27 nmol/mL; for inhibition of growth at 40 µM: 40 nmol/mL
Excerpt: as §1, §3

[9] = Table S3, read-out: Inhibition zone width (mm), not less
[10] = IBPPM543, 72 h, age of the fungus 3 days
[11] = IBPPM543, 120 h, age of the fungus 5 days
[12] = IBPPM543, 168 h, age of the fungus 7 days
[13] = IBPPM543, 216 h, age of the fungus 9 days
[14] = 120 h, age of the fungus 5 days
[15] = 168 h, age of the fungus 7 days
[16] = 216 h, age of the fungus 9 days

With `Cc1ccc[n+](CC(=O)N/N=C2\C(=O)N(Cc3ccccc3F)c3ccccc32)c1C` [Compound 7a] the zone of inhibition at 2000 µM ([1]; B109, 2 mM/L, average of 3 experiments, read-out: width of the inhibition zone (mm), M. luteus) was 2 mm, the zone of inhibition at 2000 µM ([1]; B109, Table S3, 2 mM/L, read-out: Inhibition zone width (mm), not less) was at least 2 mm and the zone of inhibition at 2000 µM ([2]; average of 3 experiments, read-out: width of the inhibition zone (mm), P. atrosepticum) was 3 mm. The zone of inhibition at 2000 µM [2, 9] was at least 3 mm, the zone of inhibition at 2000 µM ([3]; average of 3 experiments, read-out: width of the inhibition zone (mm), P. carotovorum subsp. carotovorum) was 6 mm and the zone of inhibition at 2000 µM [3, 9] was at least 6 mm. For the same compound, the zone of inhibition at 2000 µM ([4]; average of 3 experiments, read-out: width of the inhibition zone (mm), Ps. fluorescens) was 5 mm, the zone of inhibition at 2000 µM [4, 9] was at least 5 mm and the zone of inhibition at 2000 µM ([5]; B610, 2 mM/L, average of 3 experiments, read-out: width of the inhibition zone (mm), X. campestris) was 5 mm. For the same compound, the zone of inhibition at 2000 µM ([5]; B610, Table S3, 2 mM/L, read-out: Inhibition zone width (mm), not less) was at least 5 mm, the zone of inhibition at 2000 µM ([6]; 36 h, 2 mM solutions, dependent on the test system used, read-out: inhibition zone width (mm), range over the test systems) was 2 to 6 mm and the “bactericidal activity” value ([6]; Table S2) was “moderate bactericidal activity”. For the same compound, the inhibition zone ([6]; against P. carotovorum subsp. carotovorum MI, Ps. fluorescens EL-2.1 and X. campestris B-610) was 5–6 mm, the inhibition of growth at 1 µM [7, 10] was 9% and the inhibition of growth at 5 µM [7, 10] was 43%. It also gave an inhibition of growth at 30 µM [7, 10] of 51%, an inhibition of growth at 40 µM [7, 10] of 61% and an EC50 ([7]; IBPPM543, 120 h, day 5, read-out: EC50, µg/mL at Day 5, F. oxysporum) of 7.25 µg/mL. It also gave an inhibition of growth at 1 µM [7, 11] of 4%, an inhibition of growth at 5 µM [7, 11] of 44% and an inhibition of growth at 30 µM [7, 11] of 59%. The inhibition of growth at 40 µM [7, 11] was 65%, the inhibition of growth at 1 µM [7, 12] was 8% and the inhibition of growth at 5 µM [7, 12] was 41%. For the same compound, the inhibition of growth at 30 µM [7, 12] was 56%, the inhibition of growth at 40 µM [7, 12] was 69% and the inhibition of growth at 1 µM [7, 13] was 0%. For the same compound, the inhibition of growth at 5 µM [7, 13] was 33%, the inhibition of growth at 30 µM [7, 13] was 55% and the inhibition of growth at 40 µM [7, 13] was 64%. The inhibition of growth at 3 µM ([8]; 72 h, age of the fungus 3 days) was 5%, the inhibition of growth at 7 µM ([8]; 72 h, age of the fungus 3 days) was 17% and the inhibition of growth at 20 µM ([8]; 72 h, age of the fungus 3 days) was 21%. For the same compound, the inhibition of growth ([8]; 72 h, age of the fungus 3 days) was 27%, the inhibition of growth at 40 µM ([8]; 72 h, age of the fungus 3 days) was 42% and the EC50 ([8]; 120 h, day 5, read-out: EC50, µg/mL at Day 5, P. cactorum) was 22.9 µg/mL. For the same compound, the inhibition of growth at 3 µM [8, 14] was 12%, the inhibition of growth at 7 µM [8, 14] was 21% and the inhibition of growth at 20 µM [8, 14] was 25%. The inhibition of growth [8, 14] was 29%, the inhibition of growth at 40 µM [8, 14] was 45% and the inhibition of growth at 3 µM [8, 15] was 4%. It also gave an inhibition of growth at 7 µM [8, 15] of 10%, an inhibition of growth at 20 µM [8, 15] of 16% and an inhibition of growth [8, 15] of 20%. It also gave an inhibition of growth at 40 µM [8, 15] of 38%, an inhibition of growth at 3 µM [8, 16] of 4% and an inhibition of growth at 7 µM [8, 16] of 6%. It also gave an inhibition of growth at 20 µM [8, 16] of 13%, an inhibition of growth [8, 16] of 16% and an inhibition of growth at 40 µM [8, 16] of 37%.
